Key:
[1] = system: human cord blood monocytes (CBMC); assay: Cytokines in human cord blood monocytes (CBMC); format: cell-based
Source text: IL-12p40, is a marker for the innate immune response to infection and is down regulated in CBMC.

[2] = system: pre-term lamb BPD model; assay: Pre-term lamb BPD model: lung histopathology and radial alveolar count; format: in vivo
Source text: Detailed methods have been published previously by Reyburn et al. and Null et al (Reyburn, Li et al. 2008, Null, Alvord et al. 2014), relevant portions incorporated herein by reference. All protocols have been adhered to APS/NIH guidelines for animal research and have been approved by the Institution Animal Care and Use Committees (IACUC) at the University of Utah. Lung injury in PT neonates, including PT lambs, that are mechanically ventilated (MV) is the classical picture of alveolar simplification. Alveolar simplification is evident as distended terminal respiratory units that have few secondary septa and thick, cellular mesenchyme.
The micrographs show terminal respiratory units (TRU) of the lung at the same magnification. […] Radial alveolar count is the number of tissue intersections across a terminal respiratory unit, from the center of the respiratory bronchiole to the perimeter of the terminal respiratory unit.

[3] = PK in preterm lambs after IV dosing; format: in vivo, lamb
Description: A total 9 lambs were used for this study. One dose of Curosurf was given intratracheally to the PT lamb just after birth. Randomized doses of compound AVR-48 (8) (0, 0.1, 0.3, 1.0 and 3.0 mg/kg) were administered intravenously every 12 hr after the initial dose that will be given at 6 hr after delivery to n=2-4 lambs via slow intravenous injection. The beginning treatment at 6 hr post-delivery is selected to represent the human case where neonatologists attempt to allow an infant to breath without mechanical ventilation, if possible, and then begin invasive respiratory support as necessary. Whole blood was drawn from PT lambs at the time of delivery (“pre-dose”), immediately after dosing (IAD), at 15, 30, 45, and 60 min, and at 2, 4, 8, 12, 24, 48, 72, and 96 hr after the initial dose. Plasma extractions and bioanalysis of compound AVR-48 (8) were performed using a qualified bioanalysis method already developed by us. The PK parameters were calculated following both non-Compartmental Pharmacokinetic Modeling and population Pharmacokinetic Modeling as described by Roberts et al previously (Roberts, Stockmann et al. 2016). Blood was collected every 15 min for the first 90 min of postnatal life, followed by every 3 hours for 12 hours and then spaced at 1.5 d, 2.5 d, 3.5 d, 6.5 d, and 9.5 d for analysis of cytokines (Visconti, Senthamaraikannan et al. 2018) and VEGF levels (Albertine, Dahl et al. 2010). The blood samples also were analyzed for hematology and liver enzymes. After 6-7 d of mechanical ventilation, the lambs will be weaned from mechanical ventillation and weaned to non-invasive support for 3 d to ascertain longer-term outcome (Dahl, Bowen et al. 2018). Terminally, the PT lambs were euthanized after 10 days and their heart/lungs and brain were removed. Ex vivo BAL of the right cranial lobe (it has its own bronchus, pulmonary artery and vein) was done for similar analyses. Tracheal aspirates were collected according to the protocol for cytokines, BAL protein, ICAM-1 and VEGF. The spleen was collected to analyze immune cell population, using FACS.

[4] = sheep, plasma, single IV dose 3.0 mg/kg/dose saline solution, n=3 preterm lambs

SMILES: CC(=O)N[C@@H]1C(Oc2ccc([N+](=O)[O-])cc2)OC(CO)C(O)C1O (some centres unmarked) [AVR-48]
- IL-10 increase ([1]; AVR-48 alone, 0.1-10 μM): ~2.5 fold
- IL-1β ([1]; LPS+AVR-48, 10 μM): decreased
- IL-10 ([1]; LPS+AVR-48, 10 μM): decreased
- IL-12p40 response ([1]; compound alone (10 μM) or with LPS, compared with only LPS): higher IL-12p40 response than only LPS
- TNF-α levels ([1]; human CBMC, LPS): decreased
- radial alveolar count / alveoli formation ([2]; 3.0 mg/Kg, preliminary results): promotes alveoli formation
- alveolar simplification (lung histopathology) ([2]; vs vehicle treated PT lamb): significantly improved
- drug accumulation ([3]; repeat IV dosing for 7 days): no drug accumulation
- Cmax [3, 4]: 12.2 ± 5.6 µM
- half-life [3, 4]: 33.6 min
- plasma concentration profile ([3]; single IV dose 3.0 mg/kg/dose): linear decline in drug concentration

From US12440471B2, “Compositions and methods for the treatment of bronchopulmonary dysplasia (BPD) and BPD-associated pulmonary hypertension” (AyuVis Research, Inc., priority 2021, dated 2025)
